From patent US6403600B1, “Methoximinophenylacetic acid amides” (Bayer Aktiengesellschaft, priority 1998, dated 2002)

Assay: logP determination by HPLC (EEC-Directive 79/831 Annex V. A8)
Type: physicochemical
Settings: gradient method, acetonitrile/0.1% aqueous phosphoric acid

Row | Structure (SMILES) | logP
1 | CON=C(C(=O)N(C)SN(C)C(=O)OC)c1ccccc1COc1ccccc1C [Example 8] | 4.24
2 | CON=C(C(=O)N(SC(F)(Cl)Cl)C1CC1)c1ccccc1COc1ccccc1C [Example 60] | 5.58
3 | CCc1ccccc1Oc1ncnc(Oc2ccccc2C(=NOC)C(=O)N(C)SC(F)(Cl)Cl)c1F [Example 109] | 5.25
4 | CON=C(C(=O)N(C)SC(F)(Cl)Cl)c1ccccc1CON=C(C)c1cccc(Cl)c1 [Example 77] | 5.79
5 | CON=C(C(=O)N(C)SC(F)(Cl)Cl)c1ccccc1Oc1ncnc(Oc2cccc(Cl)c2)c1F [Example 117] | 5.14
6 | CON=C(C(=O)N(C)SC(F)(F)F)c1ccccc1Oc1ccccc1 [Example 50] | 4.38
7 | CON=C(C(=O)N(C)SC(F)(Cl)Cl)c1ccccc1Oc1ncnc(Oc2ccccc2OC(F)F)c1F [Example 94] | 4.7
8 | CON=C(C(=O)N(C)SC(F)(Cl)Cl)c1ccccc1OC [Example 146] | 3.69
9 | CCSN(C)C(=O)C(=NOC)c1ccccc1COc1ccccc1C [Example 52] | 4.55
10 | CON=C(C(=O)N(C)SC(F)(Cl)Cl)c1ccccc1Oc1ccccc1 [Example 47] | 4.75
11 | CCOC(=O)N(C)C(=O)C(=NOC)c1ccccc1COc1ccccc1C [Example 12] | 4.46
12 | CON=C(C(=O)N(C)SC(F)(Cl)Cl)c1ccccc1Oc1ncnc(Oc2ccc(OC(F)(F)F)cc2C)c1F [Example 138] | 5.65
13 | CON=C(C(=O)N(C)SC(F)(Cl)Cl)c1ccccc1Oc1ncnc(Oc2ccc(F)cc2Cl)c1F [Example 114] | 5.14
14 | CCOc1ccccc1Oc1ncnc(Oc2ccccc2C(=NOC)C(=O)N(C)SC(F)(Cl)Cl)c1F [Example 110] | 4.86
15 | CON=C(C(=O)N(C)Sc1cccc(C(F)(F)F)c1)c1ccccc1CON=C(C)c1cccc(C(F)(F)F)c1 [Example 74] | 5.84
16 | CCCCN(CCCC)SN(C)C(=O)C(=NOC)c1ccccc1COc1ccccc1C [Example 9] | 6.83
17 | CON=C(C(=O)NSC(F)(Cl)Cl)c1ccccc1COc1ccccc1C [Example 28] | 4.32
18 | CON=C(C(=O)N(C)SC(F)(Cl)Cl)c1ccccc1COc1cc(F)ccc1F [Example 69] | 4.86
19 | CON=C(C(=O)N(C)SC)c1ccccc1CON=C(C)c1cccc(C(F)(F)F)c1 [Example 71] | 4.73
20 | CON=C(C(=O)N(C)Sc1ccc(C(=O)OC)cc1)c1ccccc1COc1ccccc1C [Example 13] | 4.89
21 | CON=C(C(=O)N(C)SC(F)(Cl)Cl)c1ccccc1Oc1cc(Oc2cccc(Cl)c2C)ncn1 [Example 141] | 5.29

Row | Structure (SMILES) | logP
22 | CON=Cc1ccccc1Oc1ncnc(Oc2ccccc2C(=NOC)C(=O)N(C)SC(F)(Cl)Cl)c1F [Example 140] | 5.03
23 | CON=C(C(=O)N(C)SC(F)(Cl)Cl)c1ccccc1Oc1ncnc(Oc2cccc(Cl)c2Cl)c1F [Example 91] | 5.46
24 | CCCCOP(=O)(OC)N(C)C(=O)C(=NOC)c1ccccc1COc1ccccc1C (stereo not shown) [Example 15] | 4.53
25 | CON=C(C(=O)N(C)SC(C)(F)F)c1ccccc1COc1ccccc1C [Example 57] | 4.62
26 | CON=C(C(=O)N(C)C(=O)N(C)SC(F)(F)F)c1ccccc1COc1ccccc1C [Example 59] | 4.75
27 | CON=C(C(=O)N(C)SC(F)(Cl)Cl)c1ccccc1Oc1ncnc(Oc2ccccc2OC(F)(F)F)c1F [Example 93] | 5.2
28 | CON=C(C(=O)N(C)Sc1ccc(OC)cc1)c1ccccc1COc1ccccc1C [Example 11] | 4.98
29 | CCOCN(C)C(=O)C(=NOC)c1ccccc1CON=C(C)c1cccc(C(F)(F)F)c1 [Example 39] | 4.58
30 | CCOCN(C)C(=O)C(=NOC)c1ccccc1Oc1ccccc1 [Example 42] | 3.36
31 | CON=C(C(=O)N(C)SC(F)(Cl)Cl)c1ccccc1CON=C(C)c1cccc(C(F)(F)F)c1 [Example 32] | 5.74
32 | CCOC(=O)N(C)C(=O)C(=NOC)c1ccccc1CON=C(C)c1cccc(C(F)(F)F)c1 [Example 38] | 4.91
33 | CON=C(C(=O)N(C)SC(F)(Cl)Cl)c1ccccc1OC(=O)c1c(F)cccc1F [Example 144] | 4.41
34 | CON=C(C(=O)N(C)Sc1ccc(Cl)cc1)c1ccccc1COc1ccccc1C [Example 20] | 5.53
35 | CON=C(C(=O)N(C)SC(F)(Cl)Cl)c1ccccc1Oc1ncnc(Oc2ccc(I)cc2)c1F [Example 127] | 5.35
36 | CON=C(C(=O)N(C)Sc1ccc(C)cc1)c1ccccc1COc1ccccc1C [Example 24] | 5.45
37 | CON=C(C(=O)N(C)S(C)(=O)=O)c1ccccc1COc1ccccc1C [Example 18] | 3.82
38 | CON=C(C(=O)N(C)SC(F)(Cl)Cl)c1ccccc1Oc1ncnc(Oc2ccc(Cl)c(Cl)c2)c1F [Example 115] | 5.58
39 | CCSC(=O)N(C)C(=O)C(=NOC)c1ccccc1COc1ccccc1C [Example 27] | 4.91
40 | CN(SC(F)(Cl)Cl)C(=O)C(=NOCF)c1ccccc1Oc1ncnc(Oc2ccccc2Cl)c1F [Example 98] | 4.84
41 | CON=C(C(=O)N(C)SC(F)(Cl)Cl)c1ccccc1Oc1ncnc(Oc2ccc(Br)cc2)c1F [Example 104] | 5.19

More lines, now with the values ahead:

Row | logP | Structure (SMILES)
42 | 5.48 | CON=C(C(C)=NOCc1ccccc1C(=NOC)C(=O)N(C)SC(F)(Cl)Cl)c1ccccc1 [Example 143]
43 | 4.34 | CON=C(C(=O)N(C)SC(F)(Cl)Cl)c1ccccc1Oc1ncnc(Oc2ccc(C#N)cc2)c1F [Example 107]
44 | 5.17 | CON=C(C(=O)N(SC(F)(F)F)C1CC1)c1ccccc1COc1ccccc1C [Example 61]
45 | 5.59 | CON=C(C(=O)N(C)SC(F)(Cl)Cl)c1ccccc1Oc1ncnc(Oc2cccc(Cl)c2C)c1F [Example 86]
46 | 5.48 | CON=C(C(=O)N(C)Sc1ccccc1)c1ccccc1CON=C(C)c1cccc(C(F)(F)F)c1 [Example 72]
47 | 3.59 | CON=C(C(=O)N(C)SC(=O)OC)c1ccccc1Oc1ccccc1 [Example 43]
48 | 5.16 | CON=C(C(=O)N(C)SC(F)(Cl)Cl)c1ccccc1Oc1ncnc(Oc2ccc(C(F)(F)F)cc2OC)c1F [Example 112]
49 | 4.42 | CCOC(=O)N(C(=O)OCC)C(=O)C(=NOC)c1ccccc1COc1ccccc1C [Example 29]
50 | 5.4 | CON=C(C(=O)N(C)SC(F)(Cl)Cl)c1ccccc1Oc1ncnc(Oc2c(C)cccc2C)c1F [Example 97]
51 | 4.63 | CON=C(C(=O)N(C)SC(F)(Cl)Cl)c1ccccc1Oc1ncnc(Oc2ccc(OC)cc2)c1F [Example 108]
52 | 3.32 | CON=C(C(=O)N(C)C(=O)N1CCOCC1)c1ccccc1COc1ccccc1C [Example 36]
53 | 5.02 | CON=C(C(=O)N(C)SC(F)(Cl)Cl)c1ccccc1Oc1ncnc(Oc2ccc(C)cc2)c1F [Example 120]
54 | 5.05 | CON=C(C(=O)N(C)SC(F)(Cl)Cl)c1ccccc1Oc1ncnc(Oc2ccccc2C)c1F [Example 89]
55 | 5.11 | CON=C(C(=O)N(C)Sc1ccc(F)cc1)c1ccccc1COc1ccccc1C [Example 7]
56 | 5.42 | CON=C(C(=O)N(C)SC(F)(Cl)Cl)c1ccccc1Oc1ncnc(Oc2cccc(C(F)(F)F)c2Cl)c1F [Example 126]
57 | 4.93 | CON=C(C(=O)N(C)SC(F)(F)F)c1ccccc1COc1ccccc1C [Example 56]
58 | 5.59 | CCSCc1ccccc1OCc1ccccc1C(=NOC)C(=O)N(C)SC(F)(Cl)Cl [Example 58]
59 | 4.73 | CON=C(C(=O)N(C)SC(F)(Cl)Cl)c1ccccc1Oc1ncnc(Oc2ccccc2F)c1F [Example 105]
60 | 5.68 | CON=C(C(=O)N(C)SC(F)(Cl)Cl)c1ccccc1COc1cc(C)ccc1C [Example 67]
61 | 5.88 | CON=C(C(=O)N(C)SC(F)(Cl)Cl)c1ccccc1Oc1ncnc(Oc2cc(C)ccc2C(C)C)c1F [Example 124]
62 | 5.02 | CCSN(C)C(=O)C(=NOC)c1ccccc1CON=C(C)c1cccc(C(F)(F)F)c1 [Example 73]
63 | 4.72 | CON=C(C(=O)N(C)SC(F)(Cl)Cl)c1ccccc1Oc1ncnc(Oc2cccc(C=O)c2Cl)c1F [Example 87]
64 | 5.39 | CON=C(C(=O)N(C)SC(F)(F)F)c1ccccc1CON=C(C)c1cccc(Cl)c1 [Example 78]
